Reference: patent US20040044405A1, “Vascular stent or graft coated or impregnated with protein tyrosine kinase inhibitors and method of using same” (priority 2001, published 2004)

Tests used:
PKC = settings: cited from earlier work
Porcine coronary VSMCs = assay: Porcine coronary VSMC proliferation, BrdU incorporation ELISA after PDGF stimulation; format: cell-based; settings: PDGF 20 ng/mL, STI-571, FIG. 1
Protocol: BrdU was added to the wells for the last 5 hours of the stimulation period.

[1] = system: Porcine aortic vascular endothelial cells; assay: Porcine aortic vascular endothelial cell proliferation, BrdU incorporation ELISA after VEGF stimulation; format: cell-based; settings: VEGF 20 ng/mL for 24 hours, STI-571, FIG. 2
Protocol: Porcine aortic vascular endothelial cells were grown to subconfluence in 96-well plates with DME media containing 10% FBS at 37° C. for 3 to 5 days. […] BrdU was added to the wells for the last 5 hours of the stimulation period. The cells were subsequently dried for 24 hours at 60° C., fixed and denatured, and BrdU incorporation determined using the Roche ELISA described in Example 1.

[2] = system: human coronary artery vascular smooth muscle cells; assay: DNA synthesis in human coronary artery vascular smooth muscle cells, BrdU assay; format: cell-based; settings: 10% FBS for 48 hours, FIG. 4
[3] = system: human coronary artery vascular smooth muscle cells; assay: Migration of human coronary artery vascular smooth muscle cells through porous membrane in response to PDGF; format: cell-based; settings: PDGF-ββ 20 ng/ml, 24 hrs, normalized to control membranes, FIG. 5
Protocol: Migration was assayed by counting cells that migrated through a porous membrane (20 μm diameter pores) in 24 hours in response to stimulation with platelet-derived growth factor (PDGF-pp).
The initial seed density was 4000 cells per filter (0.3 cm^2) in test media with 1% BSA and 20 ng/ml PDGF-ββ. The cells were then incubated in a humidified environment at 37° C., 5% CO2 for 24 hrs. The cells on the top side of the filter were then scraped away. The cells on bottom side of the filters were then fixed with ice-cold methanol for 10 min. The filters were rinsed with PBS and then stained with HarrisAE Hematoxylin stain for 5 min. and again rinsed with PBS.
The cells were then counted manually under high-power magnification (400×) in quadruplicate.

| SMILES | inhibitory activity / specificity towards PKC (PKC) | proliferation of VSMCs (BrdU incorporation) (Porcine coronary VSMCs) | proliferation of aortic vascular endothelial cells (BrdU incorporation) [1] | DNA synthesis in human coronary artery vascular smooth muscle cells (BrdU incorporation) [2] | migration of human coronary vascular smooth muscle cells [3] |
| --- | --- | --- | --- | --- | --- |
| O=C1NC(=O)c2cc(Nc3ccccc3)c(Nc3ccccc3)cc21 [CGP5211] | some inhibitory activity |  |  |  |  |
| O=C1NC(=O)c2cc(Nc3ccc(F)cc3)c(Nc3ccc(F)cc3)cc21 [CGP53353] | lower specificity towards PKC isozymes |  |  |  |  |
| Cc1ccc(NC(=O)c2ccc(CN3CCN(C)CC3)cc2)cc1Nc1nccc(-c2cccnc2)n1 [STI-571] |  | inhibited the proliferation of VSMCs in a dose-dependent fashion | very minimal inhibitory effect | inhibits DNA synthesis | inhibits the migration of human coronary vascular smooth muscle cells in a dose-dependent fashion |
